The molecules below were run on Influenza type A (strain A/PR/8/34, ATCC VR-95) (assay: Influenza antiviral assay: inhibition of virus-induced cytopathic effects (CPE) in MDCK cells, XTT dye reduction). Details: Influenza A virus, H1N1 / PR/8, MDCK, 96 h, strain A/PR/8/34, MDCK cells, CPE inhibition at 4 days.
Type: cell-based

SMILES | EC50
CN1CN(C23c4ccccc4CC2Cc2c3ccc(F)c2F)n2ccc(=O)c(O)c2C1=O (stereo not shown) [Compound A6, 1-(1,2-Difluoro-9a,10-dihydro-9H-indeno[1,2-a]inden-4b-yl)-5-hydroxy-3-methyl-2,3-dihydro-1H-pyrido[2,1-f][1,2,4]triazine-4,6-dione] | < 125 nM
O=C1c2c(O)c(=O)ccn2N(C23c4ccccc4CC2Cc2c3ccc(F)c2F)CN1C1CC1 (stereo not shown) [Compound A61] | < 125 nM
O=C1c2c(O)c(=O)ccn2N(C23c4ccccc4CC2Cc2cc(F)c(F)cc23)CN1CC1CC1 (stereo not shown) [Compound A13, 3-Cyclopropylmethyl-1-(2,3-difluoro-9a,10-dihydro-9H-indeno[1,2-a]inden-4b-yl)-5-hydroxy-2,3-dihydro-1H-pyrido[2,1-f][1,2,4]triazine-4,6-dione] | < 125 nM
CCC1N(C)C(=O)c2c(O)c(=O)ccn2N1C12c3ccccc3CC1Cc1ccccc12 (stereo not shown) [Compound A166] | < 125 nM
CC(C)N1CN(C23c4ccccc4CC2(C)Cc2ccccc23)n2ccc(=O)c(O)c2C1=O (stereo not shown) [Compound A50, 5-hydroxy-3-isopropyl-1-(9a-methyl-9a,10-dihydroindeno[1,2-a]inden-4b(9H)-yl)-2,3-dihydro-1H-pyrido[2,1-f] [1,2,4] triazine-4,6-dione] | < 125 nM
CCN1CN(C23c4ccccc4CC2Cc2c3ccc(F)c2C)n2ccc(=O)c(O)c2C1=O (stereo not shown) [Compound A77] | < 125 nM
O=C1c2c(O)c(=O)ccn2N(C23c4ccccc4CC2Cc2ccccc23)CN1Cc1ccccc1 (stereo not shown) [Compound A4, 3-Benzyl-1-(9a,10-dihydro-9H-indeno[1,2-a]inden-4b-yl)-5-hydroxy-2,3-dihydro-1H-pyrido[2,1-f][1,2,4]triazine-4,6-dione] | > 500 nM
O=C1c2c(O)c(=O)ccn2N(C23c4ccccc4CC2Cc2c(Cl)cccc23)CN1C1CC1 (stereo not shown) [Compound A93] | 125 to 250 nM
O=C1c2c(O)c(=O)ccn2N(C23c4ccccc4CC2Cc2ccccc23)CN1CCOc1ccccc1 (stereo not shown) [Compound A7, 1-(9a,10-Dihydro-9H-indeno[1,2-a]inden-4b-yl)-5-hydroxy-3-(2-phenoxy-ethyl)-2,3-dihydro-1H-pyrido[2,1-t][1,2,4]triazine-4,6-dione] | > 500 nM
O=C1c2c(O)c(=O)ccn2N(C23c4ccccc4CC2Cc2c(F)cccc23)CN1CCc1ccccc1 (stereo not shown) [Compound A87] | 125 to 250 nM
O=C1c2c(O)c(=O)ccn2N(C23c4ccccc4CC2Cc2cc(F)c(F)cc23)CN1CCc1ccccc1 (stereo not shown) [Compound A22, 1-(2,3-difluoro-9a,10-dihydroindeno[1,2-a]inden-4b(9H)-yl)-5-hydroxy-3-phenethyl-2,3-dihydro-1H-pyrido[2,1-f][1,2,4]triazine-4,6-dione] | 250 to 375 nM
O=C1c2c(O)c(=O)ccn2N(C23c4ccccc4CC2Cc2ccccc23)CN1Cc1cccc(Cl)c1F (stereo not shown) [Compound A31, 3-(3-chloro-2-fluorobenzyl)-1-(9a,10-dihydroindeno[1,2-a]inden-4b(9H)-yl)-5-hydroxy-2,3-dihydro-1H-pyrido[2,1-f][1,2,4]triazine-4,6-dione] | > 500 nM
O=C1c2c(O)c(=O)ccn2N(C23c4ccccc4CC2Cc2c(F)cccc23)CN1C1CC1 (stereo not shown) [Compound A65] | 125 to 250 nM
COCCN1C(=O)c2c(O)c(=O)ccn2N(C23c4ccccc4CC2Cc2c(F)cccc23)C1C (stereo not shown) [Compound A124] | 375 to 500 nM
O=C1c2c(O)c(=O)ccn2N(C23c4ccccc4CC2Cc2c(F)cccc23)CN1CC(F)F (stereo not shown) [Compound A83] | < 125 nM
O=C1c2c(O)c(=O)ccn2N(C23c4cccc(F)c4CC2Cc2c(F)cccc23)CN1CCc1ccccc1 (stereo not shown) [Compound A86] | 125 to 250 nM
O=C1c2c(O)c(=O)ccn2N(C23c4ccccc4CC2Cc2c(Cl)cccc23)CN1CC1CCC1 (stereo not shown) [Compound A112] | 375 to 500 nM
CC1N(CCF)C(=O)c2c(O)c(=O)ccn2N1C12c3ccccc3CC1Cc1c(Cl)cccc12 (stereo not shown) [Compound A115] | 375 to 500 nM
CCN1CN(C23c4ccccc4CC2Cc2c(C)cccc23)n2ccc(=O)c(O)c2C1=O (stereo not shown) [Compound A82] | < 125 nM

Reference: US12037333B2, “Pyridopyrazine and pyridotriazine inhibitors of influenza virus replication” (priority 2018, dated 2024)
